Reference: ChEMBL document CHEMBL4312011, “Synthesis and biological evaluation of triterpenoid thiazoles derived from betulonic acid, dihydrobetulonic acid, and ursonic acid” (Eur J Med Chem, 2020)
Values after ≈ are worked out from the molar mass of the structure shown. Each block holds one molecule with its values, some of them ahead of it. Active and inactive are the calls of the source. No cut-off for these calls is given here.

Tests used:
MRC5 = experiment: Cytotoxicity against human MRC5 cells incubated for 72 hrs by MTS assay; format: cell-based; conditions: MRC5, 72 h
CCRF-CEM [1] = experiment: Induction of apoptosis in human CCRF-CEM cells assessed as activation of caspase 3 at 5 times IC50 concentration measured after 24 hrs by Western blot analysis; format: functional, cell-based
K562 = experiment: Cytotoxicity against human K562 cells incubated for 72 hrs by MTS assay; format: functional, cell-based; conditions: K562, 72 h
CCRF-CEM [2] = experiment: Induction of apoptosis in human CCRF-CEM cells assessed as decrease in Bcl-2 expression at 5 times IC50 concentration measured after 24 hrs by Western blot analysis; format: functional, cell-based
[3] = Chemical stability of compound in PBS buffer assessed as parent compound remaining at 2 uM at pH 7.4 and 37 degC incubated for 30 mins by RF-MS analysis; format: physicochemical; conditions: read-out: Stability
CCRF-CEM [4] = experiment: Induction of apoptosis in human CCRF-CEM cells assessed as activation of procaspase 8 at 5 times IC50 concentration measured after 24 hrs by Western blot analysis; format: functional, cell-based
CCRF-CEM [5] = experiment: Induction of apoptosis in human CCRF-CEM cells assessed as viable cells at 5 times IC50 concentration measured after 24 hrs by AnnexinV-FITC/propidium iodide staining based flow cytometry analysis (reference value: 97 %); format: functional
[6] = Microsomal stability in human liver microsomes assessed as parent compound remaining at 2 uM incubated for 60 mins by RF-MS analysis; format: ADME, Microsome; conditions: read-out: Stability
CCRF-CEM [7] = experiment: Induction of apoptosis in human CCRF-CEM cells assessed as increase in BAX expression at 5 times IC50 concentration measured after 24 hrs by Western blot analysis; format: functional, cell-based
[8] = Chemical stability of compound in PBS buffer assessed as parent compound remaining at 2 uM at pH 7.4 and 37 degC incubated for 60 mins by RF-MS analysis; format: physicochemical; conditions: read-out: Stability
CCRF-CEM [9] = experiment: Induction of mitochondrial membrane depolarization in human CCRF-CEM cells at 5 times IC50 measured after 24 hrs by JC-1 staining based flow cytometry analysis (reference value: 8.4 %); format: functional
[10] = Solubility of compound in 5 % DMSO in water by HPLC-MS analysis; format: physicochemical
[11] = Cytotoxicity against human K562-TAX cells incubated for 72 hrs by MTS assay; format: functional, cell-based
U2OS = experiment: Cytotoxicity against human U2OS cells incubated for 72 hrs by MTS assay; format: functional, cell-based
[12] = Solubility of compound in 10 % DMSO in water by HPLC-MS analysis; format: physicochemical
[13] = Cytotoxicity against human CEM-DNR-bulk cells incubated for 72 hrs by MTS assay; format: functional, cell-based
HCT-116 [14] = experiment: Cytotoxicity against human HCT116 cells incubated for 72 hrs by MTS assay; format: functional, cell-based; conditions: HCT-116, 72 h
BJ = experiment: Cytotoxicity against human BJ cells incubated for 72 hrs by MTS assay; format: cell-based
CCRF-CEM [15] = experiment: Induction of apoptosis in human CCRF-CEM cells assessed as activation of PARP cleavage at 5 times IC50 concentration measured after 24 hrs by Western blot analysis; format: functional, cell-based
CCRF-CEM [16] = experiment: Cell cycle arrest in human CCRF-CEM cells assessed as decrease in proportion of cells in S phase at 5 times IC50 measured after 24 hrs by propidium iodide/RNase staining based flow cytometry analysis; format: functional
[17] = Solubility of compound in 0.5 % DMSO in water by HPLC-MS analysis; format: physicochemical
[18] = Stability in human plasma assessed as parent compound remaining at 2 uM incubated for 60 mins by RF-MS analysis; format: ADME, cell-free; conditions: read-out: Stability
CCRF-CEM [19] = experiment: Induction of apoptosis in human CCRF-CEM cells assessed as increase in caspase 3/7 activity using Ac-DEVD-AMC as substrate at 5 times IC50 concentration measured after 24 hrs by fluorescence assay; format: functional, cell-based
HCT-116 [20] = experiment: Cytotoxicity against p53 knockout human HCT116 cells incubated for 72 hrs by MTS assay; format: functional, cell-based; conditions: HCT-116, 72 h
CCRF-CEM [21] = experiment: Induction of apoptosis in human CCRF-CEM cells assessed as activation of caspase 7 at 5 times IC50 concentration measured after 24 hrs by Western blot analysis; format: functional, cell-based
CCRF-CEM [22] = experiment: Cell cycle arrest in human CCRF-CEM cells assessed as increase in G2/M phase accumulation at 5 times IC50 measured after 24 hrs by propidium iodide/RNase staining based flow cytometry analysis; format: functional
CCRF-CEM [23] = experiment: Induction of apoptosis in human CCRF-CEM cells assessed as necrotic cells at 5 times IC50 concentration measured after 24 hrs by AnnexinV-FITC/propidium iodide staining based flow cytometry analysis (reference value: 0.1 %); format: functional
[24] = Permeability of compound in PBS buffer assessed as permeability coefficient at pH 7.4 incubated for 18 hrs by PAMPA based RF-MS analysis; format: ADME; conditions: pH 7.4, 18 h
CCRF-CEM [25] = experiment: Cytotoxicity against human CCRF-CEM cells incubated for 72 hrs by MTS assay; format: functional, cell-based
[26] = Stability in human plasma assessed as parent compound remaining at 2 uM incubated for 120 mins by RF-MS analysis; format: ADME, cell-free; conditions: read-out: Stability
[27] = Chemical stability of compound in PBS buffer assessed as parent compound remaining at 2 uM at pH 7.4 and 37 degC incubated for 120 mins by RF-MS analysis; format: physicochemical; conditions: read-out: Stability
[28] = Stability in human plasma assessed as parent compound remaining at 2 uM incubated for 15 mins by RF-MS analysis; format: ADME, cell-free; conditions: read-out: Stability
[29] = Stability in human plasma assessed as parent compound remaining at 2 uM incubated for 30 mins by RF-MS analysis; format: ADME, cell-free; conditions: read-out: Stability
[30] = Microsomal stability in human liver microsomes assessed as parent compound remaining at 2 uM incubated for 15 mins by RF-MS analysis; format: ADME, Microsome; conditions: read-out: Stability
CCRF-CEM [31] = experiment: Induction of apoptosis in human CCRF-CEM cells assessed as early apoptotic cells at 5 times IC50 concentration measured after 24 hrs by AnnexinV-FITC/propidium iodide staining based flow cytometry analysis (reference value: 2.8 %); format: functional
A549 = experiment: Cytotoxicity against human A549 cells incubated for 72 hrs by MTS assay; format: functional, cell-based; conditions: A549, 72 h
CCRF-CEM [32] = experiment: Induction of apoptosis in human CCRF-CEM cells assessed as late apoptotic cells at 5 times IC50 concentration measured after 24 hrs by AnnexinV-FITC/propidium iodide staining based flow cytometry analysis (reference value: 0.1 %); format: functional
[33] = Chemical stability of compound in PBS buffer assessed as parent compound remaining at 2 uM at pH 7.4 and 37 degC incubated for 15 mins by RF-MS analysis; format: physicochemical; conditions: read-out: Stability
[34] = Microsomal stability in human liver microsomes assessed as parent compound remaining at 2 uM incubated for 30 mins by RF-MS analysis; format: ADME, Microsome; conditions: read-out: Stability
[35] = Protein binding in human plasma at 10 uM measured after 4 hrs by rapid equilibrium dialysis; format: ADME, cell-free; conditions: read-out: PPB (converted)
CCRF-CEM [36] = experiment: Cell cycle arrest in human CCRF-CEM cells assessed as decrease in proportion of cells in G1 phase at 5 times IC50 measured after 24 hrs by propidium iodide/RNase staining based flow cytometry analysis; format: functional

remaining at 0.5 h, 2 µM [3]: 91.3%
remaining at 1 h, 2 µM [6]: 25.8%
remaining at 1 h, 2 µM [8]: 90.8%
solubility [10]: 45 µM (≈ 23 µg/mL)
solubility [12]: 89 µM (≈ 45.5 µg/mL)
solubility [17]: 26 µM (≈ 13.3 µg/mL)
remaining at 1 h, 2 µM [18]: 97.7%
log(permeability) [24]: -5.34
remaining at 2 h, 2 µM [26]: 97.7%
remaining at 2 h, 2 µM [27]: 86.9%
remaining at 0.25 h, 2 µM [28]: 99.5%
remaining at 0.5 h, 2 µM [29]: 99.2%
remaining at 0.25 h, 2 µM [30]: 31%
remaining at 0.25 h, 2 µM [33]: 99.5%
remaining at 0.5 h, 2 µM [34]: 26%
fraction unbound at 4 h, 10 µM [35]: 0.042
SMILES: C=C(C)[C@@H]1CC[C@]2(C(=O)O)CC[C@]3(C)[C@H](CC[C@@H]4[C@@]5(C)Cc6sc(N)nc6C(C)(C)[C@@H]5CC[C@]43C)[C@@H]12
IC50 (MRC5): > 50 µM
Activity (CCRF-CEM [1]): Active
IC50 (K562): > 50 µM
Activity (CCRF-CEM [2]): Active
Activity (CCRF-CEM [4]): Active
Activity (CCRF-CEM [5]): 76.9%
Activity (CCRF-CEM [7]): Active
Activity (CCRF-CEM [9]): 62.2%
IC50 [11]: 17.4 µM
IC50 (U2OS): 48 µM
IC50 [13]: 25.6 µM
IC50 (HCT-116 [14]): 36.5 µM
IC50 (BJ): > 50 µM
Activity (CCRF-CEM [15]): Active
Activity (CCRF-CEM [16]): Active
Activity (CCRF-CEM [19]): Active
IC50 (HCT-116 [20]): 48.3 µM
Activity (CCRF-CEM [21]): Active
Activity (CCRF-CEM [22]): Active
Activity (CCRF-CEM [23]): 0.8%
IC50 (CCRF-CEM [25]): 2.4 µM
Activity (CCRF-CEM [31]): 20.2%
IC50 (A549): 38.4 µM
Activity (CCRF-CEM [32]): 2.1%

remaining at 0.5 h, 2 µM [3]: 99.2%
remaining at 1 h, 2 µM [6]: 66.2%
remaining at 1 h, 2 µM [8]: 99.1%
solubility [10]: 30 µM (≈ 16 µg/mL)
solubility [12]: 83 µM (≈ 44.3 µg/mL)
solubility [17]: 24 µM (≈ 12.8 µg/mL)
remaining at 1 h, 2 µM [18]: 94.9%
log(permeability) [24]: -4.93
remaining at 2 h, 2 µM [26]: 85.5%
remaining at 2 h, 2 µM [27]: 88.5%
remaining at 0.25 h, 2 µM [28]: 98.5%
remaining at 0.5 h, 2 µM [29]: 98.2%
remaining at 0.25 h, 2 µM [30]: 93.4%
remaining at 0.25 h, 2 µM [33]: 99.6%
remaining at 0.5 h, 2 µM [34]: 80.7%
fraction unbound at 4 h, 10 µM [35]: 0.176
SMILES: C[C@H]1[C@H](C)CC[C@]2(C(=O)O)CC[C@]3(C)C(=CC[C@@H]4[C@@]5(C)CC(Br)C(=O)C(C)(C)[C@@H]5CC[C@]43C)[C@H]12 (stereo partly specified)
IC50 (MRC5): 29.3 µM
Activity (CCRF-CEM [1]): Active
IC50 (K562): 38.8 µM
Activity (CCRF-CEM [2]): Active
Activity (CCRF-CEM [4]): Active
Activity (CCRF-CEM [5]): 80.7%
Activity (CCRF-CEM [7]): Active
Activity (CCRF-CEM [9]): 36.3%
IC50 [11]: 25.1 µM
IC50 (U2OS): 20.7 µM
IC50 [13]: 21.8 µM
IC50 (HCT-116 [14]): 28.4 µM
IC50 (BJ): 49.5 µM
Activity (CCRF-CEM [15]): Active
Activity (CCRF-CEM [16]): Active
Activity (CCRF-CEM [19]): Active
Activity (CCRF-CEM [36]): Active
IC50 (HCT-116 [20]): 29.8 µM
Activity (CCRF-CEM [21]): Active
Activity (CCRF-CEM [22]): Active
Activity (CCRF-CEM [23]): 0.4%
IC50 (CCRF-CEM [25]): 3.6 µM
Activity (CCRF-CEM [31]): 16.5%
IC50 (A549): 27.6 µM
Activity (CCRF-CEM [32]): 2.4%
